According to ChEMBL document CHEMBL4024707, “Using gene expression database to uncover biology functions of 1,4-disubstituted 1,2,3-triazole analogues synthesized via a copper (I)-catalyzed reaction” (Eur J Med Chem, 2017):

Key:
[1] = Growth inhibition of HUVEC at 12.5 uM after 24 hrs by MTT assay relative to control; assay type: cell-based; settings: human, HUVEC cells; read-out: GI
[2] = Growth inhibition of HUVEC at 25 uM after 24 hrs by MTT assay relative to control; assay type: cell-based; settings: human, HUVEC cells; read-out: GI
Hep 3B2 [3] = assay: Cell cycle arrest in human Hep3B cells assessed as accumulation at sub-G1 phase after 24 to 72 hrs by propidium iodide staining based flow cytometry; assay type: functional
Hep 3B2 [4] = assay: Cell cycle arrest in human Hep3B cells assessed as accumulation at sub-G1 phase at 2.5 to 20 uM by propidium iodide staining based flow cytometry; assay type: functional; settings: TDE = time-dependent effect
Hep 3B2 [5] = assay: Cell cycle arrest in human Hep3B cells assessed as accumulation at G0/G1 phase at 5 uM after 72 hrs by propidium iodide staining based flow cytometry (reference value: 41.6 to 46.2%); assay type: functional
Hep 3B2 [6] = assay: Cell cycle arrest in human Hep3B cells assessed as accumulation at S phase at 2.5 uM after 72 hrs by propidium iodide staining based flow cytometry (reference value: 16.4 to 21.1%); assay type: functional
Hep 3B2 [7] = assay: Cell cycle arrest in human Hep3B cells assessed as accumulation at S phase at 5 uM after 48 hrs by propidium iodide staining based flow cytometry (reference value: 20.8 to 24%); assay type: functional
Hep 3B2 [8] = assay: Cell cycle arrest in human Hep3B cells assessed as accumulation at S phase at 10 uM after 24 hrs by propidium iodide staining based flow cytometry (reference value: 22.6 to 27.1%); assay type: functional
Hep 3B2 [9] = assay: Cell cycle arrest in human Hep3B cells assessed as accumulation at S phase at 10 uM after 48 hrs by propidium iodide staining based flow cytometry (reference value: 20.8 to 24%); assay type: functional
Hep 3B2 [10] = assay: Cell cycle arrest in human Hep3B cells assessed as accumulation at S phase at 10 uM after 72 hrs by propidium iodide staining based flow cytometry (reference value: 16.4 to 21.1%); assay type: functional
Hep 3B2 [11] = assay: Cell cycle arrest in human Hep3B cells assessed as accumulation at S phase at 20 uM after 72 hrs by propidium iodide staining based flow cytometry (reference value: 16.4 to 21.1%); assay type: functional
Hep 3B2 [12] = assay: Cell cycle arrest in human Hep3B cells assessed as accumulation at G2/M phase at 10 uM after 72 hrs by propidium iodide staining based flow cytometry (reference value: 28.7 to 32.3%); assay type: functional
Hep 3B2 [13] = assay: Induction of autophagy in human Hep3B cells after 24 to 72 hrs by acridine orange staining based flow cytometry; assay type: functional, cell-based
Hep 3B2 [14] = assay: Cytotoxicity against human Hep3B cells after 48 hrs by MTT assay; assay type: functional, cell-based
Hep 3B2 [15] = assay: Cell cycle arrest in human Hep3B cells assessed as accumulation at sub-G1 phase at 20 uM after 24 hrs by propidium iodide staining based flow cytometry (reference value: 1.9 to 3.6%); assay type: functional
Hep 3B2 [16] = assay: Cell cycle arrest in human Hep3B cells assessed as accumulation at sub-G1 phase at 20 uM after 48 hrs by propidium iodide staining based flow cytometry (reference value: 1.5 to 6.5%); assay type: functional
Hep 3B2 [17] = assay: Induction of autophagy in human Hep3B cells at 10 uM after 48 hrs by acridine orange staining based flow cytometry (reference value: 0.9 to 3%); assay type: functional
Hep 3B2 [18] = assay: Cell cycle arrest in human Hep3B cells assessed as accumulation at sub-G1 phase at 40 uM after 48 hrs by propidium iodide staining based flow cytometry (reference value: 1.5 to 6.5%); assay type: functional
Hep 3B2 [19] = assay: Cell cycle arrest in human Hep3B cells assessed as accumulation at G0/G1 phase at 40 uM after 48 hrs by propidium iodide staining based flow cytometry (reference value: 39.7 to 40.4%); assay type: functional
Hep 3B2 [20] = assay: Cell cycle arrest in human Hep3B cells assessed as accumulation at G2/M phase at 40 uM after 72 hrs by propidium iodide staining based flow cytometry (reference value: 28.7 to 32.3%); assay type: functional
Hep 3B2 [21] = assay: Induction of autophagy in human Hep3B cells at 40 uM after 24 hrs by acridine orange staining based flow cytometry (reference value: 1.1 to 1.3%); assay type: functional
Hep 3B2 [22] = assay: Induction of autophagy in human Hep3B cells assessed as ratio of LC3-2 to beta actin level at 40 uM after 72 hrs in presence of curcumin by Western blot analysis
Hep 3B2 [23] = assay: Cytotoxicity against human Hep3B cells at 20 uM after 24 hrs by MTT assay relative to control; assay type: functional
Hep 3B2 [24] = assay: Growth inhibition of human Hep3B cells after 48 hrs by MTT assay; assay type: functional, cell-based
Hep 3B2 [25] = assay: Growth inhibition of human Hep3B cells at 10 uM after 48 hrs in presence of curcumin by MTT assay; assay type: functional
[26] = target: Glycogen synthase kinase-3 beta (Homo sapiens) (UniProt P49841); assay: Inhibition of GSK3beta phosphorylation at Ser9 in human Hep3B cells assessed as ratio of phosphorylated GSK3beta to beta-actin level at 10 uM after 48 hrs by Western blot analysis; assay type: cell-based
Chain of Glycogen synthase kinase-3 beta (Homo sapiens) (P49841 whole entry, looked up): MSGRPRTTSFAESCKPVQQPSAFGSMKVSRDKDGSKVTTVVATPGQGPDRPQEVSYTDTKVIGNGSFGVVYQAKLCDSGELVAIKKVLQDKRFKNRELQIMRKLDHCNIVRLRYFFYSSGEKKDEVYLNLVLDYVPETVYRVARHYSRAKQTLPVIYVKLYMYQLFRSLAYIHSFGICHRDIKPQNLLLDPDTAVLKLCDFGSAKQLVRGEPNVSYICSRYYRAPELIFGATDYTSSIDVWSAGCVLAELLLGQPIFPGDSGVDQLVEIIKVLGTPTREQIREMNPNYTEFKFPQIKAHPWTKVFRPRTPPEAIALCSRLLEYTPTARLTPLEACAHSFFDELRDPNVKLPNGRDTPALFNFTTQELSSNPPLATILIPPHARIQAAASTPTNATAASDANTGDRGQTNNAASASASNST

Hep 3B2 [27] = assay: Effect on total GSK3beta expression in human Hep3B cells assessed as ratio of GSKbeta to beta-actin level at 10 uM after 48 hrs by Western blot analysis; assay type: cell-based; settings: hep 3b2, 48 h
Hep 3B2 [28] = assay: Up regulation of ARFIP2 expression in human Hep3B cells at 1 uM after 6 to 24 hrs by L1000 expression profiling method relative to control; assay type: functional
Hep 3B2 [29] = assay: Up regulation of CCND1 expression in human Hep3B cells at 1 uM after 6 to 24 hrs by L1000 expression profiling method relative to control; assay type: functional
Hep 3B2 [30] = assay: Up regulation of OXA1L expression in human Hep3B cells at 1 uM after 6 to 24 hrs by L1000 expression profiling method relative to control; assay type: functional
Hep 3B2 [31] = assay: Down regulation of SLC27A3 expression in human Hep3B cells at 1 uM after 6 to 24 hrs by L1000 expression profiling method relative to control; assay type: functional
Hep 3B2 [32] = assay: Down regulation of SHB expression in human Hep3B cells at 1 uM after 6 to 24 hrs by L1000 expression profiling method relative to control; assay type: functional
Hep 3B2 [33] = assay: Down regulation of CD40 expression in human Hep3B cells at 1 uM after 6 to 24 hrs by L1000 expression profiling method relative to control; assay type: functional
Hep 3B2 [34] = assay: Down regulation of DUSP11 expression in human Hep3B cells at 1 uM after 6 to 24 hrs by L1000 expression profiling method relative to control; assay type: functional
Hep 3B2 [35] = assay: Down regulation of PTPRK expression in human Hep3B cells at 1 uM after 6 to 24 hrs by L1000 expression profiling method relative to control; assay type: functional
Hep 3B2 [36] = assay: Down regulation of TMX2-CTNND1 expression in human Hep3B cells at 1 uM after 6 to 24 hrs by L1000 expression profiling method relative to control; assay type: functional
Hep 3B2 [37] = assay: Down regulation of SNX7 expression in human Hep3B cells at 1 uM after 6 to 24 hrs by L1000 expression profiling method relative to control; assay type: functional
Hep 3B2 [38] = assay: Down regulation of PIK3CA expression in human Hep3B cells at 1 uM after 6 to 24 hrs by L1000 expression profiling method relative to control; assay type: functional

CNC(=O)c1cc(Oc2ccc(NC(=O)Nc3ccc(Cl)c(C(F)(F)F)c3)cc2)ccn1 [SORAFENIB]
inhibition at 24 h, 12.5 µM [1]: 37.4% | inhibition at 24 h, 25 µM [2]: 41.4% | Activity (Hep 3B2 [3]): Dose-dependent effect | Activity (Hep 3B2 [4]): Tde | Activity (Hep 3B2 [5]): 47.8% | Activity (Hep 3B2 [6]): 15% | Activity (Hep 3B2 [7]): 13.1% | Activity (Hep 3B2 [8]): 12.3% | Activity (Hep 3B2 [9]): 8.8% | Activity (Hep 3B2 [10]): 7.9% | Activity (Hep 3B2 [11]): 6.2% | Activity (Hep 3B2 [12]): 22.7% | Activity (Hep 3B2 [13]): Dose-dependent effect | IC50 (Hep 3B2 [14]): 11.2 µM

COc1ccc(CNC(=O)Nc2ncc([N+](=O)[O-])s2)cc1
Activity (Hep 3B2 [15]): 4.7% | Activity (Hep 3B2 [16]): 3.6% | Activity (Hep 3B2 [5]): 42.4% | Activity (Hep 3B2 [6]): 21.1% | Activity (Hep 3B2 [7]): 24.6% | Activity (Hep 3B2 [8]): 23.4% | Activity (Hep 3B2 [9]): 23.2% | Activity (Hep 3B2 [10]): 21.5% | Activity (Hep 3B2 [11]): 19.5% | Activity (Hep 3B2 [12]): 34.1% | Activity (Hep 3B2 [17]): 5.8% | Activity (Hep 3B2 [13]): Dose-dependent effect | Activity (Hep 3B2 [18]): 8.9% | Activity (Hep 3B2 [19]): 34.7% | Activity (Hep 3B2 [20]): 42.8% | Activity (Hep 3B2 [21]): 7.1% | Ratio (Hep 3B2 [22]): 2.6

O=C1COc2ccccc2N1Cc1cn(CCC2OCCO2)nn1
Activity (Hep 3B2 [23]): 24.1% | inhibition at 24 h, 12.5 µM [1]: 15.2% | inhibition at 24 h, 25 µM [2]: 23.8% | Activity (Hep 3B2 [15]): 34.1% | Activity (Hep 3B2 [16]): 57.2% | Activity (Hep 3B2 [3]): Dose-dependent effect | Activity (Hep 3B2 [4]): Tde | Activity (Hep 3B2 [17]): 20.3% | growth inhibition (GI) (Hep 3B2 [24]): Dose-dependent effect | CI (Hep 3B2 [25]): 0.89 | Ratio [26]: 0.7 | Ratio (Hep 3B2 [27]): 0.8 | log2FC (Hep 3B2 [28]): 3.4502 | log2FC (Hep 3B2 [29]): 3.2544 | log2FC (Hep 3B2 [30]): 3.2193 | log2FC (Hep 3B2 [31]): -3.1535 | log2FC (Hep 3B2 [32]): -3.2569 | log2FC (Hep 3B2 [33]): -3.3087 | log2FC (Hep 3B2 [34]): -3.3243 | log2FC (Hep 3B2 [35]): -3.3276 | log2FC (Hep 3B2 [36]): -3.9071 | log2FC (Hep 3B2 [37]): -4.1511 | log2FC (Hep 3B2 [38]): -4.2586 | IC50 (Hep 3B2 [14]): 16.8 µM
